Here are results for one substance from patent US9125429B2, “High-potency sweetener composition with fatty acid and compositions sweetened therewith” (THE COCA-COLA COMPANY, priority 2005, dated 2015).

The subject of the experiment is panel of experts in the sensory evaluation of foods and beverages. Kind of experiment: Sensory evaluation of sweetness linger and taste characteristics by expert panel. In kind it is in vivo. Further details: key: 0=no sweetness linger; 1=very slight sweetness linger; 2=slight sweetness linger; 3=moderate sweetness linger; 4=moderately high sweetness linger; 5=high sweetness linger.

With rebaudioside A, the sweetness linger is, setting by setting: (Example Set G: 400 ppm REBA in citric acid/potassium citrate composition equivalent to diet lemon-lime beverage (sugar control 8 g in 100 ml citrate buffer), scale 0-5, sweetness 3-4 min after water rinse) 5; (Example Set H: REBA (500 ppm; H41 360 ppm) in carbon-treated water, phosphoric acid (75%) to pH 2.4-2.5 (sugar control 10 g in 100 ml), scale 0-5) 5.
